Test results published in patent US20240360119A1, “SMALL MOLECULE UREA DERIVATIVES AS STING ANTAGONISTS” (CURADEV PHARMA PVT. LTD., priority 2021, published 2024).

Tested on: STING (IRF pathway reporter in THP1-Dual™ cells, THP-1 (HAQ))
Assay: Reporter gene expression assay in THP-1 cells (THP1-Dual, IRF pathway Lucia luciferase, 2′,3′-cGAMP stimulation)
Format: cell-based, human
Conditions: 10 min preincubation, 5 μM 2′,3′-cGAMP, 20 hr, IRF pathway luciferase (QUANTI-Luc), IC50 range class
Method: THP1-Dual™ cells (Invivogen) were derived from the human THP-1 monocyte cell line by stable integration of two inducible reporter constructs. As a result, THP1-Dual™ cells allow the simultaneous study of the IRF pathway, by assessing the activity of a secreted luciferase (Lucia) and the NF-κB pathway, by monitoring the activity of secreted SEAP. 5×10^4 THP1-Dual™ cells were seeded in 384-well plates in growth medium and preincubated with novel compounds for 10 minutes followed by stimulation with 5 μM 2′,3′-cGAMP. After 20 hr of stimulation the supernatant was removed and the IRF pathway reporter protein was readily measured in the cell culture supernatant using QUANTI-Luc™ (Invivogen), a luciferase detection reagent on a Spectramax i3X luminometer.
In the tables below, IC50 value ranges for exemplary compounds are given. The IC50 ranges are indicated as “A” for values less than or equal to 1 μM, “B” for values greater than 1 μM and less than or equal to 10 μM, and “C” for values greater than 10 μM.

| SMILES | IC50 (Homo sapiens) [nM] | IC50 [nM] |
| --- | --- | --- |
| O=C(NCc1ccc2c(c1)N(Cc1ccccc1)C(=O)CS2)Nc1ccc2cc[nH]c2c1 [Example 18, 1-((4-benzyl-3-oxo-3,4-dihydro-2H-benzo[b][1,4]thiazin-6-yl)methyl)-3-(1H-indol-6-yl)urea] | 1000 to 10000 |  |
| COCCN(C)C(=O)CC(NC(=O)Nc1ccc2cc[nH]c2c1)c1ccc2c(c1)N(Cc1ccccc1)CCS2 (stereo not shown) [Example 33, 3-(3-(1H-indol-6-yl)ureido)-3-(4-benzyl-3,4-dihydro-2H-benzo[b][1,4]thiazin-6-yl)-N-(2-methoxyethyl)-N-methylpropanamide] | 1000 to 10000 |  |
| CN(CCO)C(=O)CC(NC(=O)Nc1ccc2cc[nH]c2c1)c1ccc2c(c1)N(Cc1ccccc1)CCS2 (stereo not shown) [Example 31, 3-(3-(1H-indol-6-yl)ureido)-3-(4-benzyl-3,4-dihydro-2H-benzo[b][1,4]thiazin-6-yl)-N-(2-hydroxyethyl)-N-methylpropanamide] | 1000 to 10000 |  |
| CNC(=O)CC(NC(=O)Nc1ccc2cc[nH]c2c1)c1ccc2c(c1)N(Cc1ccccc1)CCS2 (stereo not shown) [Example 26, 3-(3-(1H-indol-6-yl)ureido)-3-(4-benzyl-3,4-dihydro-2H-benzo[b][1,4]thiazin-6-yl)-N-methylpropanamide] | 1000 to 10000 |  |
| C=CCC(NC(=O)Nc1c[nH]c2ccccc12)c1ccc2c(c1)N(Cc1ccccc1)CCS2 (stereo not shown) [Example 37, 1-(1-(4-benzyl-3,4-dihydro-2H-benzo[b][1,4]thiazin-6-yl)but-3-en-1-yl)-3-(1H-indol-3-yl)urea] | 1000 to 10000 |  |
| O=C(Nc1ccc2cc[nH]c2c1)NC(CC(O)CO)c1ccc2c(c1)N(Cc1ccccc1)CCO2 (single isomer, unassigned) [Example 8, 1-(1-(4-Benzyl-3,4-dihydro-2H-benzo[b][1,4]oxazin-6-yl)-3,4-dihydroxybutyl)-3-(1H-indol-6-yl)urea] |  | > 10000 |
| CON(C)C(=O)CC(NC(=O)Nc1ccc2cc[nH]c2c1)c1ccc2c(c1)N(Cc1ccccc1)CCS2 (stereo not shown) [Example 28, 3-(3-(1H-indol-6-yl)ureido)-3-(4-benzyl-3,4-dihydro-2H-benzo[b][1,4]thiazin-6-yl)-N-methoxy-N-methylpropanamide] | 1000 to 10000 |  |
| CN(C)C(=O)CC(NC(=O)Nc1ccc2cc[nH]c2c1)c1ccc2c(c1)N(Cc1ccccc1)CCS2 (single isomer, unassigned) [Example 6, 3-(3-(1H-indol-6-yl)ureido)-3-(4-benzyl-3,4-dihydro-2H-benzo[b][1,4]thiazin-6-yl)-N,N-dimethylpropanamide] |  | 1000 to 10000 |
| O=C(NCc1ccc2c(c1)SCCN2c1ccccc1)Nc1ccc2cc[nH]c2c1 [Example 20, 1-(1H-indol-6-yl)-3-((4-phenyl-3,4-dihydro-2H-benzo[b][1,4]thiazin-7-yl)methyl)urea] | 1000 to 10000 |  |
| CN(C(=O)CC(NC(=O)Nc1ccc2cc[nH]c2c1)c1ccc2c(c1)N(Cc1ccccc1)CCS2)C1CC1 (stereo not shown) [Example 32, 3-(3-(1H-indol-6-yl)ureido)-3-(4-benzyl-3,4-dihydro-2H-benzo[b][1,4]thiazin-6-yl)-N-cyclopropyl-N-methylpropanamide] | > 10000 |  |
| CN(C)C(=O)CC(NC(=O)Nc1ccc2cc[nH]c2c1)c1ccc2c(c1)N(Cc1ccccc1)CCS2 (racemic) [Example 4, 3-(3-(1H-indol-6-yl)ureido)-3-(4-benzyl-3,4-dihydro-2H-benzo[b][1,4]thiazin-6-yl)-N,N-dimethylpropanamide] | 1000 to 10000 |  |
| O=C(CC(NC(=O)Nc1ccc2cc[nH]c2c1)c1ccc2c(c1)N(Cc1ccccc1)CCS2)Nc1cccnc1 (stereo not shown) [Example 34, 3-(3-(1H-indol-6-yl)ureido)-3-(4-benzyl-3,4-dihydro-2H-benzo[b][1,4]thiazin-6-yl)-N-(pyridin-3-yl)propanamide] | > 10000 |  |
| O=C(Nc1ccc2cc[nH]c2c1)NC(CC(O)CO)c1ccc2c(c1)N(Cc1ccccc1)CC[S+]2[O-] (stereo not shown) [Example 25, 1-(1-(4-benzyl-1-oxido-3,4-dihydro-2H-benzo[b][1,4]thiazin-6-yl)-3,4-dihydroxybutyl)-3-(1H-indol-6-yl)urea] | > 10000 |  |
| O=C(Nc1ccc2cc[nH]c2c1)NC(CC(O)CO)c1ccc2c(c1)N(Cc1ccccc1)CCO2 (single isomer, unassigned) [Example 7, 1-(1-(4-Benzyl-3,4-dihydro-2H-benzo[b][1,4]oxazin-6-yl)-3,4-dihydroxybutyl)-3-(1H-indol-6-yl)urea] | > 10000 |  |
| O=C(Nc1ccc2cc[nH]c2c1)NC(CO)c1ccc2c(c1)N(Cc1ccccc1)CCS2 (single isomer, unassigned) [Example 13, 1-(1-(4-benzyl-3,4-dihydro-2H-benzo[b][1,4]thiazin-6-yl)-2-hydroxyethyl)-3-(1H-indol-6-yl)urea] |  | ≤ 1000 |
| O=C(CC(NC(=O)Nc1ccc2cc[nH]c2c1)c1ccc2c(c1)N(Cc1ccccc1)CCS2)NCCO (stereo not shown) [Example 35, 3-(3-(1H-indol-6-yl)ureido)-3-(4-benzyl-3,4-dihydro-2H-benzo[b][1,4]thiazin-6-yl)-N-(2-hydroxyethyl)propanamide] | 1000 to 10000 |  |
| O=C(Nc1ccc2cc[nH]c2c1)NC(CC(=O)N1CCOCC1)c1ccc2c(c1)N(Cc1ccccc1)CCS2 (stereo not shown) [Example 30, 1-(1-(4-benzyl-3,4-dihydro-2H-benzo[b][1,4]thiazin-6-yl)-3-morpholino-3-oxopropyl)-3-(1H-indol-6-yl)urea] | 1000 to 10000 |  |

More lines, now with the values ahead:

| IC50 (Homo sapiens) [nM] | IC50 [nM] | SMILES |
| --- | --- | --- |
| 1000 to 10000 |  | CN(C)C(=O)CC(NC(=O)Nc1ccc2cc[nH]c2c1)c1ccc2c(c1)N(Cc1ccccc1)CCS2 (single isomer, unassigned) [Example 5, 3-(3-(1H-indol-6-yl)ureido)-3-(4-benzyl-3,4-dihydro-2H-benzo[b][1,4]thiazin-6-yl)-N,N-dimethylpropanamide] |
| ≤ 1000 |  | O=C(NCc1ccc2c(c1)OCCN2c1ccccc1)Nc1ccc2cc[nH]c2c1 [Example 21, 1-(1H-indol-6-yl)-3-((4-phenyl-3,4-dihydro-2H-benzo[b][1,4]oxazin-7-yl)methyl)urea] |
| ≤ 1000 |  | O=C(NCc1ccc2c(c1)OCCN2Cc1ccccc1)Nc1ccc2cc[nH]c2c1 [Example 3, 1-((4-Benzyl-3,4-dihydro-2H-benzo[b][1,4]oxazin-7-yl)methyl)-3-(1H-indol-6-yl)urea] |
| ≤ 1000 |  | O=C(Nc1ccc2cc[nH]c2c1)NC(CO)c1ccc2c(c1)N(Cc1ccccc1)CCS2 (single isomer, unassigned) [Example 12, 1-(1-(4-benzyl-3,4-dihydro-2H-benzo[b][1,4]thiazin-6-yl)-2-hydroxyethyl)-3-(1H-indol-6-yl)urea] |
| ≤ 1000 |  | O=C(NCc1ccc2c(c1)N(Cc1ccccc1)CCS2)Nc1ccc2cc[nH]c2c1 [Example 1, 1-((4-Benzyl-3,4-dihydro-2H-benzo[b][1,4]thiazin-6-yl)methyl)-3-(1H-indol-6-yl)urea] |
| ≤ 1000 |  | O=C(NCc1ccc2c(c1)SCC(=O)N2Cc1ccccc1)Nc1ccc2cc[nH]c2c1 [Example 17, 1-((4-benzyl-3-oxo-3,4-dihydro-2H-benzo[b][1,4]thiazin-7-yl)methyl)-3-(1H-indol-6-yl)urea] |
| ≤ 1000 |  | NC(=O)CC(NC(=O)Nc1ccc2cc[nH]c2c1)c1ccc2c(c1)N(Cc1ccccc1)CCS2 (stereo not shown) [Example 23, 3-(3-(1H-indol-6-yl)ureido)-3-(4-benzyl-3,4-dihydro-2H-benzo[b][1,4]thiazin-6-yl)propanamide] |
| ≤ 1000 |  | O=C(NCc1ccc2c(c1)N(c1ccccc1)CCS2)Nc1ccc2cc[nH]c2c1 [Example 14, 1-(1H-Indol-6-yl)-3-((4-phenyl-3,4-dihydro-2H-benzo[b][1,4]thiazin-6-yl)methyl)urea] |
